This is an account of results in US20240217951A1, “PCSK9 INHIBITORS AND METHODS OF USE THEREOF” (AstraZeneca AB, priority 2022, published 2024).

One assay deals with T1, human PCSK9 (Homo sapiens, UniProt Q8NBP7).
T1 construct: biotinylated human PCSK9 (31-692)-Avi-His6; His6 (C)
Put plainly: Assay 2 - Biophysical human PCSK9 assay (SPR, Biacore). In kind it is binding. To be noted: geometric mean; SPR at 30° C; read-out: Assay 2 (PCSK9 BIAcore DBA CR) GMean Kd. (In general: In SPR one partner is held on a chip, and binding of the other changes the refractive index at the surface.)

Assay [1] deals with T2, PCSK9 (Homo sapiens, UniProt Q8NBP7, G670E/V474I). Put plainly: biochemical.
The target in assay [2] is T2, PCSK9. Put plainly: Assay 3 - PCSK9 LDL-C uptake assay in HepG2 cells. In kind it is cell-based. Also noted: TEV cleavage site (C); His6 (C); host or cells: added to HepG2 cells (ATCC #HB-8065). Particulars: 125 nM PCSK9, pHrodo Red-LDL, read-out: Assay 3 LDL uptake potency. A digest of the protocol:
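HepG2 cells seeded 24 h, then given compound (half-log series, top 10 μM) plus PCSK9 at 125 nM final for 24 h at 37 °C. pHrodo Red-LDL (6 μg/mL) added; uptake imaged at 4 h and 24 h. Signal normalized between DMSO and 100 nM evolocumab controls, four-parameter logistic fit.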

Each structure is given as a SMILES string.

T1 sequence (Q8NBP7 31-692): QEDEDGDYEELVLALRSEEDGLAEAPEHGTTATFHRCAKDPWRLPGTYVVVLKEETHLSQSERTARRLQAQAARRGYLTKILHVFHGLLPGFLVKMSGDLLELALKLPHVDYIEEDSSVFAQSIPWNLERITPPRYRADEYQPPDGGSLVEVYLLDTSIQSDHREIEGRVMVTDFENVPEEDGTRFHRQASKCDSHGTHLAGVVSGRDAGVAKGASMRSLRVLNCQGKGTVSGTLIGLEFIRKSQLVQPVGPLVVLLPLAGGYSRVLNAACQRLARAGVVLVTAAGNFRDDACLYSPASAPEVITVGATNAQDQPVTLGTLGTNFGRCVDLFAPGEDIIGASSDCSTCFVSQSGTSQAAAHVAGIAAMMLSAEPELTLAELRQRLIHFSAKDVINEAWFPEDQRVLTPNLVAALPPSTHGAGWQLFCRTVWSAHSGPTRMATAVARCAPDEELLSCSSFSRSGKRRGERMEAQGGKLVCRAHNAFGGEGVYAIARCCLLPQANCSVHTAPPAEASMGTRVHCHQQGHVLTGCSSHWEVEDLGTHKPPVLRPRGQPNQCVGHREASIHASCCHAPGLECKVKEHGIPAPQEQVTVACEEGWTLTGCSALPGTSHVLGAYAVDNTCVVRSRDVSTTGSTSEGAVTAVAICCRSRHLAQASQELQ
T2 sequence (Q8NBP7 with tags, fused parts or gaps V474I/G670E): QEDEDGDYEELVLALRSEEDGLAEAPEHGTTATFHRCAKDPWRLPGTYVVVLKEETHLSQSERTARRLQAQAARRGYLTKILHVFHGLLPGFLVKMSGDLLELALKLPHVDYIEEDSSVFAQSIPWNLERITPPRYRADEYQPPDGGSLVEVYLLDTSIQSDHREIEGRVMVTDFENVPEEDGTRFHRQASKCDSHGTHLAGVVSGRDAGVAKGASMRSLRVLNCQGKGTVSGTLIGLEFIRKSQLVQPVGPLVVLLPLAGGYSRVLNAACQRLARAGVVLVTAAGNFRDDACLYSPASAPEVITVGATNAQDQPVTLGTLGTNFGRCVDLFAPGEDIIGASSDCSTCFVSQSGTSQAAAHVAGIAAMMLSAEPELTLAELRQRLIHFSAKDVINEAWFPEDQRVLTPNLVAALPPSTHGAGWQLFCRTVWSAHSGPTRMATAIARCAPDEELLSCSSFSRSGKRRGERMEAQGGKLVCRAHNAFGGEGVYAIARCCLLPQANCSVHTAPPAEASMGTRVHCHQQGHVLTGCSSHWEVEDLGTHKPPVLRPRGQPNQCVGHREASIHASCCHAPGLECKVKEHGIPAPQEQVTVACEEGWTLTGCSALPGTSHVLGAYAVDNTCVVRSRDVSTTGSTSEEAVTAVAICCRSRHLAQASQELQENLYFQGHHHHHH

A word on the Kd: it is the equilibrium constant for the complex coming apart. What is called IC50 is the midpoint of a concentration-inhibition curve. As to `Cn1c(=O)n(-c2ccc(N[C@H]3CC[C@H](Nc4cnc(OC(F)F)cn4)C3)nc2)c2ccccc21` [Example 82, 1-(6-(((1S,3S)-3-((5-(Difluoromethoxy)pyrazin-2-yl)amino)cyclopentyl)amino)pyridin-3-yl)-3-methyl-1,3-dihydro-2H-benzo[d]imidazol-2-one], at human PCSK9, the Kd amounted to 4.1 nM. Inhibition against PCSK9 [1] was half-maximal at 2.5 nM (IC50). Moreover, the EC50 on PCSK9 [2] is 200 nM.

As for `COc1cccn(-c2ccc(N[C@H]3CC[C@H](Nc4cnc(C5CC5)cn4)C3)nc2)c1=O` [Example 106, 6′-(((1S,3S)-3-((5-Cyclopropylpyrazin-2-yl)amino)cyclopentyl)amino)-3-methoxy-2H-[1,3′-bipyridin]-2-one], the equilibrium dissociation constant (Kd) at human PCSK9 came to 3 nM. In addition, the midpoint of inhibition against PCSK9 [1], the IC50, lay at 4.5 nM. The EC50 at PCSK9 [2] was determined as 200 nM.

In the case of `COc1cccn(-c2ccc(N[C@H]3CC[C@H](Nc4cnc(C)cn4)C3)nc2)c1=O` [Example 36, 3-Methoxy-6′-(((1S,3S)-3-((5-methylpyrazin-2-yl)amino)cyclopentyl)amino)-2H-[1,3′-bipyridin]-2-one], the equilibrium dissociation constant (Kd) at human PCSK9 was found to be 5.3 nM. The compound also returned an IC50 against PCSK9 [1] of 4.1 nM. Moreover, the EC50 at PCSK9 [2] is 100 nM.

Consider `Cc1cnc(N[C@H]2CC[C@H](Nc3ccc(-n4cccc(Cl)c4=O)cn3)C2)cn1` [Example 47, 3-Chloro-6′-(((1S,3S)-3-((5-methylpyrazin-2-yl)amino)cyclopentyl)amino)-2H-[1,3′-bipyridin]-2-one], for which the equilibrium dissociation constant (Kd) at human PCSK9 was found to be 1.9 nM. Moreover, the IC50 against PCSK9 [1] stood at 2.1 nM. The EC50 at PCSK9 [2] was determined as 100 nM.

In the case of `COc1ccnn(-c2ccc(N[C@H]3CC[C@H](Nc4cnc(C)cn4)C3)nc2)c1=O` [Example 226, 4-Methoxy-2-(6-(((1S,3S)-3-((5-methylpyrazin-2-yl)amino)cyclopentyl)amino)pyridin-3-yl)pyridazin-3 (2H)-one], the Kd on human PCSK9 was 5.6 nM. Further, the midpoint of inhibition against PCSK9 [1], the IC50, lay at 4 nM. In addition, on PCSK9 [2], the EC50 came to 200 nM.

Consider `Cc1cnc(N[C@H]2CC[C@H](Nc3ccc(-n4c(=O)n(C)c5ccccc54)cn3)C2)cn1` [Example 45, 1-Methyl-3-(6-(((1S,3S)-3-((5-methylpyrazin-2-yl)amino)cyclopentyl)amino)pyridin-3-yl)-1,3-dihydro-2H-benzo[d]imidazol-2-one], for which, at human PCSK9, the Kd is 1.5 nM. Also, on PCSK9 [1], the half-maximal inhibitory concentration (IC50) stood at 1.5 nM. Besides, on PCSK9 [2], the EC50 is 200 nM.

Regarding `Cc1cnc(N[C@H]2CC[C@H](Nc3ccc(-n4cccc(C#N)c4=O)cn3)C2)cn1` [Example 103, 6′-(((1S,3S)-3-((5-Methylpyrazin-2-yl)amino)cyclopentyl)amino)-2-oxo-2H-[1,3′-bipyridine]-3-carbonitrile], the dissociation constant Kd on human PCSK9 is 4.7 nM. This compound also registered a concentration for half-maximal inhibition (IC50) on PCSK9 [1] of 5.7 nM. Moreover, the EC50 on PCSK9 [2] turned out to be 200 nM.

On to `O=C(O)c1ccc(=O)n(-c2ccc(N[C@H]3CC[C@H](Nc4cnc(Cl)cn4)C3)nc2)c1` [Example 33, 6′-(((1S,3S)-3-((5-Chloropyrazin-2-yl)amino)cyclopentyl)amino)-2-oxo-2H-[1,3′-bipyridine]-5-carboxylic acid], for which the Kd at human PCSK9 is 13 nM. Also, on PCSK9 [1], the 50% inhibitory concentration (IC50) is 12 nM. Further, the EC50 on PCSK9 [2] was found to be 100 nM.

Take `COc1cccn(-c2ccc(N[C@H]3CC[C@H](Nc4cnc(OC(F)F)cn4)C3)nc2)c1=O` [Example 94, 6′-(((1S,3S)-3-((5-(Difluoromethoxy)pyrazin-2-yl)amino)cyclopentyl)amino)-3-methoxy-2H-[1,3′-bipyridin]-2-one]: on human PCSK9, the Kd came out at 12 nM. This compound showed a half-inhibitory concentration (IC50) against PCSK9 [1] of 7.7 nM. For the same compound, the EC50 on PCSK9 [2] was determined as 300 nM.

Regarding `Cc1cccn(-c2ccc(N[C@H]3CC[C@H](Nc4cnc(Cl)cn4)C3)nc2)c1=O` [Example 24, 6′-(((1S,3S)-3-((5-Chloropyrazin-2-yl)amino)cyclopentyl)amino)-3-methyl-2H-[1,3′-bipyridin]-2-one], the dissociation constant Kd at human PCSK9 stood at 4 nM. The concentration for half-maximal inhibition (IC50) at PCSK9 [1] was 4.3 nM. Besides, the EC50 at PCSK9 [2] worked out at 400 nM.

Turning to `Cc1cnc(N[C@H]2CC[C@H](Nc3ccc(-n4c(=O)n(C)c5cccnc54)cn3)C2)cn1` [Example 42, 1-Methyl-3-(6-(((1S,3S)-3-((5-methylpyrazin-2-yl)amino)cyclopentyl)amino)pyridin-3-yl)-1,3-dihydro-2H-imidazo[4,5-b]pyridin-2-one], the dissociation constant Kd at human PCSK9 turned out to be 5 nM. Moreover, inhibition against PCSK9 [1] was half-maximal at 5.8 nM (IC50). The EC50 on PCSK9 [2] turned out to be 200 nM.

Consider `O=c1ccc(-c2ccc(F)cc2)cn1-c1ccc(N[C@H]2CC[C@H](Nc3cnc(Cl)cn3)C2)nc1` [Example 32, 6′-(((1S,3S)-3-((5-Chloropyrazin-2-yl)amino)cyclopentyl)amino)-5-(4-fluorophenyl)-2H-[1,3′-bipyridin]-2-one], for which the dissociation constant Kd at human PCSK9 was 20 nM. On PCSK9 [1], this compound yielded a half-inhibitory concentration (IC50) of 7.9 nM. Besides, the EC50 on PCSK9 [2] came to 200 nM.

Take `Cn1c(=O)n(-c2ccc(N[C@H]3CC[C@H](Nc4cnc(Cl)cn4)C3)nc2)c2ccccc21` [Example 27, 1-(6-(((1S,3S)-3-((5-Chloropyrazin-2-yl)amino)cyclopentyl)amino)pyridin-3-yl)-3-methyl-1,3-dihydro-2H-benzo[d]imidazol-2-one]: the Kd on human PCSK9 turned out to be 3.1 nM. Further, at PCSK9 [1], the half-maximal inhibitory concentration (IC50) was found to be 1.7 nM. Further, the EC50 on PCSK9 [2] was 100 nM.

As to `Cc1cnc(N[C@H]2CC[C@H](Nc3ccc(-n4c(=O)[nH]c5ccccc54)cn3)C2)cn1` [Example 46, 1-(6-(((1S,3S)-3-((5-Methylpyrazin-2-yl)amino)cyclopentyl)amino)pyridin-3-yl)-1,3-dihydro-2H-benzo[d]imidazol-2-one], the dissociation constant Kd on human PCSK9 was determined as 4.7 nM. At PCSK9 [1], this compound returned an IC50 of 3 nM. For the same compound, on PCSK9 [2], the EC50 stood at 700 nM.

For the compound `O=c1ccc2ccccc2n1-c1ccc(N[C@H]2CC[C@H](Nc3cnc(Cl)cn3)C2)nc1` [Example 35, 1-(6-(((1S,3S)-3-((5-Chloropyrazin-2-yl)amino)cyclopentyl)amino)pyridin-3-yl)quinolin-2 (1H)-one], the Kd on human PCSK9 was 3 nM. This compound registered an IC50 on PCSK9 [1] of 2 nM. In addition, the EC50 on PCSK9 [2] was determined as 100 nM.

As to `Cc1cnc(N[C@H]2CC[C@H](Nc3ccc(-n4c(=O)ccc5cccnc54)cn3)C2)cn1` [Example 37, 1-(6-(((1S,3S)-3-((5-Methylpyrazin-2-yl)amino)cyclopentyl)amino)pyridin-3-yl)-1,8-naphthyridin-2(1 H)-one], the dissociation constant Kd on human PCSK9 came out at 5.5 nM. This compound displayed an IC50 against PCSK9 [1] of 6.5 nM. Further, on PCSK9 [2], the EC50 was 200 nM.

As for `Cc1cnc(N[C@H]2CC[C@H](Nc3ccc(-n4cccc(C)c4=O)cn3)C2)cn1` [Example 44, 3-Methyl-6′-(((1S,3S)-3-((5-methylpyrazin-2-yl)amino)cyclopentyl)amino)-2H-[1,3′-bipyridin]-2-one], the equilibrium dissociation constant (Kd) at human PCSK9 was found to be 4.5 nM. The compound further had an IC50 against PCSK9 [1] of 5.5 nM. Also, the EC50 on PCSK9 [2] came to 300 nM.
